Legend:
[1] = tested on: apolipoprotein B (Apo B) secretion, Hep G2 cells; assay: inhibition of the cellular secretion of Apo B (Hep G2 cells, ELISA); assay type: cell-based; conditions: Homo sapiens, HepG2, 24 h, secreted Apo B by ELISA
Experimental: The inhibition of the cellular secretion of Apo B is determined as follows:
Hep G2 cells are maintained in T-75 culture flasks (Corning) in Dulbecco's modified Eagles Medium (DMEM; Gibco-BRL) supplemented with 10% fetal calf serum Gibco-BRL) in a humidified atmosphere containing 5% carbon dioxide until they are confluent. For testing compounds, Hep G2 cells from the T-75 maintenance flasks are harvested and seeded in 96-well culture plates (Corning) and are grown for 72 hours (approximately 80% confluent). Test compound is dissolved at 1 mg/ml (w/v;1-5 mM) in dimethyl sulfoxide DMSO; Sigma) as stock solution. Prior to use, the stock solution of compound is diluted to 133 μM with DMSO and diluted further with growth medium (DMEM containing 10% fetal calf serum) to obtain 1 μM of compound in 100 μL of growth medium. 100 μL of growth medium containing the test compound is added to separate wells of a 96-well culture plate containing Hep G2 cells. For testing dose response of compound, a stock solution of test compound in DMSO is made at 665 μM and various dilutions from this solution are made in growth medium to obtain range of concentration of compound from 0.01 μM to 5 μM in 100 μL of growth medium. 100 μL of the growth medium containing different concentrations of test compound is added to separate wells containing Hep G2 cells. Twenty-four hours later, growth medium is collected and assayed by specific ELISA for apolipoprotein B (Apo B). At the same time Hep G2 cells from wells are assayed for protein (BioRad; cat. # 500-0006) and/or cell viability (Promega; CellTiter 96 Aqueous, cat. # G3581). Inhibitors are identified as compounds that decrease Apo B secretion into the medium without decreasing the total cellular protein and/or cell viability. […] Absorbance of each well is read at 405 nm using a Beckman Biomek workstation. […]

[2] = biological target: T1, rat MTP (microsomal triglyceride transfer protein) (Rattus norvegicus, UniProt D4A1W8); assay: inhibition of MTP (triglyceride transfer from donor vesicles to acceptor vesicles); assay type: biochemical; conditions: soluble rat MTP, 37° C., 45 min, radiolabeled triglyceride transfer
T1 construct: homogenate (120 g/210 mL) of rat liver; from tissue; host or cells: rat liver microsomes, deoxycholate-released soluble protein
T1 sequence (D4A1W8 22-896): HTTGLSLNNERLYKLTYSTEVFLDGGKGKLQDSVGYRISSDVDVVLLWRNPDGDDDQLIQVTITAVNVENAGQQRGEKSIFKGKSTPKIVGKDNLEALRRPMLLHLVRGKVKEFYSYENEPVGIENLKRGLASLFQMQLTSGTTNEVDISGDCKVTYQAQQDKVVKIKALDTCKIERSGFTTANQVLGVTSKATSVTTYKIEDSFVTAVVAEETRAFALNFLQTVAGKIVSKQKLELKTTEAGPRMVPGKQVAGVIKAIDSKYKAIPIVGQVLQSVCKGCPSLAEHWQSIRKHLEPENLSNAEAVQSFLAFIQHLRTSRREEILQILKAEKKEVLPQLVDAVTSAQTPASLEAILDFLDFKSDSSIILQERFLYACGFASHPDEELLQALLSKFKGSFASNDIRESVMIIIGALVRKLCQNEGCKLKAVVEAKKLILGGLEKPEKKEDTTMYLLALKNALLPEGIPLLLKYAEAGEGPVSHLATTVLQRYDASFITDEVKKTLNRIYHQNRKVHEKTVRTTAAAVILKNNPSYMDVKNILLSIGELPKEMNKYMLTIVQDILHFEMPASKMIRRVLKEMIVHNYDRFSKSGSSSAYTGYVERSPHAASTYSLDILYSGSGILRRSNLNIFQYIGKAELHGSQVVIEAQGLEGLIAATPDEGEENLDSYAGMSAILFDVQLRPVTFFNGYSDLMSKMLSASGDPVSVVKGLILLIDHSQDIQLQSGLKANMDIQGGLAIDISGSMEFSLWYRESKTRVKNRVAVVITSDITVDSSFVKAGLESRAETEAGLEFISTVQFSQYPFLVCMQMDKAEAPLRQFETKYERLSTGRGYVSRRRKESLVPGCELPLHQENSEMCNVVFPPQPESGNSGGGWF
T1 sequence (P04785 20-509 partner): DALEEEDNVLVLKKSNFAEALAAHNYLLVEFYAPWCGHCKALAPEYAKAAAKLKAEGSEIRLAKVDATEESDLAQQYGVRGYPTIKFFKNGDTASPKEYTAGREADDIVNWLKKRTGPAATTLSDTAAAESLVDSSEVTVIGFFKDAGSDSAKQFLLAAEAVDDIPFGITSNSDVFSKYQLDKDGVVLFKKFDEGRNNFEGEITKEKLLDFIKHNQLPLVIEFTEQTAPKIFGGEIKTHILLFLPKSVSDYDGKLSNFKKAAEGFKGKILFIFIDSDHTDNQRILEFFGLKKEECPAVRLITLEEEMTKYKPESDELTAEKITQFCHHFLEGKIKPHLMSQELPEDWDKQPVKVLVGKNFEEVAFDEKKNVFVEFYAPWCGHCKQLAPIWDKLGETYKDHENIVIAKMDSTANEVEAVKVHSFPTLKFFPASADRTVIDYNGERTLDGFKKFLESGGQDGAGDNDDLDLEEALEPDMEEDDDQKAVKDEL
Experimental: The inhibition of MTP is measured as follows:
Inhibition of the lipid transfer activity of MTP can be quantitated by measuring the inhibition of transfer of radiolabeled triglyceride from donor vesicles to acceptor vesicles in presence of soluble rat MTP. The procedure for preparing MTP is based on the method of Wetterau and Zilversmit (Biochim. Biophys. Acta (1986) 875:610). Briefly rats are decapitated under ether anesthesia. The liver is placed in ice cold sucrose buffer (contains 0.25M sucrose, 50 mM Tris Hcl, 1 mM EDTA, 0.02% sodium azide, pH 7.4) rinsed several times with the sucrose buffer.
All subsequent steps are performed on ice. A 57% homogenate (120 g/210 mL) of rat liver in 0.25 M sucrose buffer is prepared by using a Potter-Elvehjem homogenizer. The homogenate is then centrifuged at 4° C. for 30 min at 13,000×g to remove large cellular organells. The supernatant is then centrifuged for 90 min at 105,000×g to pellet the microsomes. The pellet is resuspended in 10 mM Tris-HCl buffer pH 8.6. and centrifuged for 90 min at 105,000×g. The washed pellet is then resuspended in 1 mM Tris buffer (pH 8.6) and centrifuged for 2 hrs. […] The protein content is measured using the Sigma Lowry micro total protein method and reagents (Sigma Cat. # 690A). […]
MTP activity is measured using a MTP transfer assay. […]

[3] = in vivo triglyceride lowering effect; conditions: 10 mg/kg p.o.
Excerpt: The in vivo serum triglyceride lowering effect of the compounds of the invention can be determined by measuring their effect on triglyceride levels in mice, rats or dogs according to methodology well known in the art, e.g., in a model of pre-established hypertriglyceridemia in fructose fed rats or in normolipidemic rats.

[4] = in vivo cholesterol lowering effect; conditions: 10 mg/kg p.o.
Excerpt: The in vivo serum cholesterol lowering effect of the compounds of the invention can be determined by measuring their effect on cholesterol levels in mice, rats or dogs according to methodology well known in the art, e.g., in normolipidemic rats.

Row | IC50 [1] | IC50 [2] | Structure (SMILES) | lowers plasma triglycerides [3] | lowers plasma cholesterol [4]
1 | ~1.8 nM | ~60 nM | Cc1cccc(C(=O)Nc2ccc3c(c2)C[C@@H](NS(C)(=O)=O)C3)c1-c1ccc(C(F)(F)F)cc1 [Example 13b] | – | –
2 | ~0.7 nM | ~70 nM | COC(=O)N[C@@H]1Cc2ccc(NC(=O)c3cccc(C)c3-c3ccc(C(F)(F)F)cc3)cc2C1 [13(i), (R)-6-methyl-4'-trifluoromethylbiphenyl-2-carboxylic acid (2-methoxycarbonylaminoindan-5-yl)-amide] | lowers both plasma triglycerides and cholesterol | lowers both plasma triglycerides and cholesterol
3 | ~3 nM | – | CS(=O)(=O)N[C@@H]1Cc2ccc(NC(=O)c3cc(F)ccc3-c3ccc(C(F)(F)F)cc3)cc2C1 [13(al)] | – | –
